Measured values: patent publication US20180244645A1, “2-AMINO-3-FLUORO-3-(FLUOROMETHYL)-6-METHYL-6-PHENYL-3,4,5,6-TETRAHYDROPYRIDINES AS BACE1 INHIBITORS” (H. Lundbeck A/S, priority 2015, published 2018)

System: Aβ40
Assay: Assessment of Aβ levels in rat brain and plasma following BACE1 inhibition (Aβ40 ELISA)
Format: in vivo
Details: 3 hours post dose, vs vehicle
Experimental: Assessment of Aβ Levels in Rat Brain and Plasma Following BACE1 Inhibition. Animals.
All rat care and experimental procedures were approved by Lundbeck Veterinary Staff, according to Danish legislature. The rats were maintained in a barrier facility with a 12/12-h light/dark cycle and ad libitum food and water access.
Young adult Male Sprague Dawley rats of approximately 250 g weight were purchased from Charles River and received 0-30 mg/kg of vehicle (10% HP betaCD+1M MeSO4, pH 2.5) or test compounds (dissolved in vehicle) only by oral gavage (p.o). The compounds are dosed at a volume of 5 ml/kg. Cohorts of 5-10 animals were established for each treatment condition.
The animals undergoing treatment were closely monitored by veterinary staff for any signs of toxicity. Monitoring parameters included body weight, physical appearance, changes in coat appearance, occurrence of unprovoked behavior, and blunted or exaggerated responses to external stimuli.
At T=180 minutes after initial dosing the animals were stunned and decapitated with a guillotine. Trunk-blood was sampled in EDTA coated tubes after decapitation of the animal. The blood was centrifuged at 2200G at 4° C. for 15 minutes and the plasma was collected and frozen at −80° C. The blood was aliquoted for Aβ ELISA and pharmacokinetic analysis. Immediately following sacrifice, the brain was extracted and split into 2 halves. The right hemibrains were snap frozen on dry ice and stored at −80° C. The left half was dissected; with the front forebrain taken for Aβ ELISA and the remainder used for DMPK analysis. These samples were also snap frozen on dry ice and stored at −80° C. until use for analysis.
The cortex samples were thawed slightly on wet ice before they were homogenized with a small volume dispersing instrument (T10 basic ULTRA-TURRAX®) which was set at speed 5 for approximately 5-7 sec. The tissue was processed in a 10 times volume of the weight, for example 100 mg of tissue was homogenized in 1000 μL of Homogenization buffer. Homogenization buffer: 50 ml Milli Q water+50 nM NaCl+0.2% Diethylamin (DEA)+1 tablet of Complete Protease inhibitor cocktail+1 nM 4-(2-aminoethyl) benzenesulfonyl fluoride hydrochloride irreversible serine protease inhibitor (AEBSF).
After homogenization 450 μL aliquots of the samples were collected into a 1.5 ml Eppendorf tube and placed on wet ice, 0.5% NP-40 (50 ul) was added to all samples and then they were incubated on ice for 30 min. After which all samples were sonicated using an Ultrasonic homogenizer with 20 kHz homogeneous sound (SONOPLUS HD2070, Bandelin Electronic) 10 pulse set at 12-13% power to extract all the Aβ species. The samples were then centrifuged (Ole Dich 157 MPRF Micro centrifuge) at 20000G for 20 minutes at 4° C. After centrifugation […] of the supernatant was pipetted into 6004 microtubes tubes and neutralized with 154 of 1M Tris-HCL buffer.
WAKO 294-62501 Human/Rat Abeta amyloid (40) kit was used for all ELISA analyses. 30 μL plasma samples or 30 μL of the cortex supernatants generated as described above were placed in 600 μL microtubes tubes on wet ice. To this 30 μL of 8M urea (AppliChem A1049, 9025) was added to generate a 2-fold dilution. Both plasma and cortex supernatants were incubated on ice for 30 min. Standard rows were prepared from the standard peptide stock provided in the kit and standard diluent containing 1.6M Urea (200 μL 8M urea+800 μL of standard diluent) and 0.8M urea (400 μL 8M urea+3600 μL Standard diluent). A serial 2-fold dilution of […] from 100 pmol/ml to 0 pmol/L was prepared for the assay.
After incubation with urea, all samples were further diluted by addition of 5 times standard diluent from the Kit. This was done by adding 240 μL Standard Diluent to 60 μL sample/urea mixture, which was then mixed well. 100 μL of each diluted sample was pipetted into designated wells of the ELISA plate in duplicates. The plate was then covered and incubated overnight at 4° C. […]

Row | SMILES | Aβ40 reduction, Brain Rat (10 mg/kg p.o.) [%] | Aβ40 reduction, Brain Rat (30 mg/kg p.o.) [%] | Aβ40 reduction, Plasma Rat (10 mg/kg p.o.) [%] | Aβ40 reduction, Plasma Rat (30 mg/kg p.o.) [%]
1 | COc1cnc(C(=O)Nc2ccc(F)c([C@]3(C)CC[C@@](F)(CF)C(N)=N3)c2)cn1 [Compound 5, N-(3-((2S,5S)-6-Amino-5-fluoro-5-(fluoromethyl)-2-methyl-2,3,4,5-tetrahydropyridin-2-yl)-4-fluorophenyl)-5-methoxypyrazine-2-carboxamide] | 56 | 65 | 44 | 46
2 | C[C@@]1(c2cc(NC(=O)c3cnc(C(F)F)cn3)ccc2F)CC[C@@](F)(CF)C(N)=N1 [Compound 11, N-(3-((2S,5S)-6-Amino-5-fluoro-5-(fluoromethyl)-2-methyl-2,3,4,5-tetrahydropyridin-2-yl)-4-fluorophenyl)-5-(difluoromethyl)pyrazine-2-carboxamide] | 21 | 41 | 39 | 60
3 | C[C@@]1(c2cc(NC(=O)c3ccc(F)cn3)ccc2F)CC[C@@](F)(CF)C(N)=N1 [Compound 13, N-(3-((2S,5S)-6-Amino-5-fluoro-5-(fluoromethyl)-2-methyl-2,3,4,5-tetrahydropyridin-2-yl)-4-fluorophenyl)-5-fluoropicolinamide] | 43 | 59 | 38 | 38
